Read-outs that look alike come from different tables or passages of the source. Where only a bound is given, the exact number is not on record here.

One assay concerns LNCaP cells. The assay can be described thus: LNCaP cell viability assay (CellTiter-Glo). The assay is classed as cell-based. The following applies: Homo sapiens, 72 h, LNCaP prostate cancer cell viability inhibition, 3 days. The method in brief:
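LNCaP cells, 5000/well, exposed to compounds in 12-point 3-fold serial dilution (top 10 μM) for 3 days. Viability by CellTiter-Glo luminescence, normalized to untreated cells; IC50 by least-squares nonlinear regression.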
A general note: In ATP-based viability assays light output follows the ATP content of the culture.

Another assay deals with P300 (Homo sapiens, UniProt Q09472). Description: Immunoblotting of P300 protein levels in LNCaP or 22RV1 cells. The assay is classed as cell-based. The arrangement: LNCaP or 22RV1 cells that express CBP/P300 proteins were treated with GNE-781 or the bivalent compounds; endogenous in cells; host or cells: LNCaP (clone FGC) or 22RV1 cells. The following applies: read-out: Degradation (10 nM). The method in brief: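 LNCaP or 22RV1 cells treated with compounds for indicated hours, DMSO as negative control. RIPA lysates resolved by SDS-PAGE and immunoblotted for P300 or CBP, tubulin or vinculin as loading control; chemiluminescent bands quantitated.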
Sequence of P300 (Q09472 whole entry): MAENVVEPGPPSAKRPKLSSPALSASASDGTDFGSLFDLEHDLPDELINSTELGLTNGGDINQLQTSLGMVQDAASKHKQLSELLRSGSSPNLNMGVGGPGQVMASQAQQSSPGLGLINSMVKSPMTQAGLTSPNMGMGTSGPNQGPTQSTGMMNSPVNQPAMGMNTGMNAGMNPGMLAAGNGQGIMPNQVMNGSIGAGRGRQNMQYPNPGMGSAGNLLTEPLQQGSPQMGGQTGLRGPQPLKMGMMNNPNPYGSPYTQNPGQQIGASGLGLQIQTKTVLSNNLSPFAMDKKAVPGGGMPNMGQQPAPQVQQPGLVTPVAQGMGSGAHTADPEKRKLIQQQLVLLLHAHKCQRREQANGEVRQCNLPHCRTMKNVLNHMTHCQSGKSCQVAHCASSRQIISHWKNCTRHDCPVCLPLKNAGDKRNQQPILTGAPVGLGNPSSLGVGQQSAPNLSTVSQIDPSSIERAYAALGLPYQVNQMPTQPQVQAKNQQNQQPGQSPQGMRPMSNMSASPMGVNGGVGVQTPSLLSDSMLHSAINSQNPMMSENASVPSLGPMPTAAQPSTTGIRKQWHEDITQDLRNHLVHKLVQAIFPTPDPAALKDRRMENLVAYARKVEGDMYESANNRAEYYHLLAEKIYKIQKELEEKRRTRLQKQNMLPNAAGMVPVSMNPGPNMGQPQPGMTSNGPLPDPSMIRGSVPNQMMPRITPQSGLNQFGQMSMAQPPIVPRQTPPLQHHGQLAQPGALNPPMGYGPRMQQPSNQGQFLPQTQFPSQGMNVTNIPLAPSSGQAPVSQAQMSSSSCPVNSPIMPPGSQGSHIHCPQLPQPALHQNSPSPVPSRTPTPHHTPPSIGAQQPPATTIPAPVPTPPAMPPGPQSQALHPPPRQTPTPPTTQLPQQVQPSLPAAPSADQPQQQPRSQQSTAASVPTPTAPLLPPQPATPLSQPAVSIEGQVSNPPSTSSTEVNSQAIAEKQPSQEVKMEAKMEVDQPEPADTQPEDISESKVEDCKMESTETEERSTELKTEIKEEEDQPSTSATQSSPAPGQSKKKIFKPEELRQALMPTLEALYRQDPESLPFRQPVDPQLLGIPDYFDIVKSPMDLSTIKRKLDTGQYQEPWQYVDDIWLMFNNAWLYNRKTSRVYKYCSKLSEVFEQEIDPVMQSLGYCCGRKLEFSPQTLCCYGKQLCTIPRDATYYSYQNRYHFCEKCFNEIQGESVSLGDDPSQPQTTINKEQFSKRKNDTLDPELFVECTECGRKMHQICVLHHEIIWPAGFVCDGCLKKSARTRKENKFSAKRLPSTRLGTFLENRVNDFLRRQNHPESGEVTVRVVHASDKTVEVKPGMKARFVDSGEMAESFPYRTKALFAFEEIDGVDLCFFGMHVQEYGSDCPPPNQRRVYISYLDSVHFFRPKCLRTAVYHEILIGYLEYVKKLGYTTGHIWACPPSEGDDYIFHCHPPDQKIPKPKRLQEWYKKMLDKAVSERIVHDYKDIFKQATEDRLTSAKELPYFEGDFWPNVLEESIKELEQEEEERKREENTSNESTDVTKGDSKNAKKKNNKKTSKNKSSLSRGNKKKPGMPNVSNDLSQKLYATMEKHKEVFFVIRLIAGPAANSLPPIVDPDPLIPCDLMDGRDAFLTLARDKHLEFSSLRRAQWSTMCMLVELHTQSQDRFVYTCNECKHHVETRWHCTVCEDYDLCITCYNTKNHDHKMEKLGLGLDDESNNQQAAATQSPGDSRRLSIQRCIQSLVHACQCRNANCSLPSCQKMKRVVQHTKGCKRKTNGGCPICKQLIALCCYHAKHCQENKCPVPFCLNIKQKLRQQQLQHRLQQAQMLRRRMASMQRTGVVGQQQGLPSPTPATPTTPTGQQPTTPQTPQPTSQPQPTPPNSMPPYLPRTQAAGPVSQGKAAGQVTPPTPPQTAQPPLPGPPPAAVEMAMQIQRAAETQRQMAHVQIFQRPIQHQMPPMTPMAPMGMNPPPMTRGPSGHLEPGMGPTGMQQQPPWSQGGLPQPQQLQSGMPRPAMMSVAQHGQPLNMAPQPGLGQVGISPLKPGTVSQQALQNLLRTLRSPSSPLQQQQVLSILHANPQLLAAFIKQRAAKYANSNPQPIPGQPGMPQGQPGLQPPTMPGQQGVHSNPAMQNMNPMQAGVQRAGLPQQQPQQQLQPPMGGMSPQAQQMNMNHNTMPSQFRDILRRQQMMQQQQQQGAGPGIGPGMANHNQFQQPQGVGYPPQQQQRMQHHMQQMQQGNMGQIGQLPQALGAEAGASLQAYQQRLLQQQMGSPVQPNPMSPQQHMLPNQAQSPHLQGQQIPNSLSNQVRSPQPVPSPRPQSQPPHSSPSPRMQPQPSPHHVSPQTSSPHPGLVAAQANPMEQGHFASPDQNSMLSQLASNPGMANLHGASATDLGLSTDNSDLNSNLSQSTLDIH
On the technique in general: Immunoblotting shows a protein as a band on a membrane.

[1] abbreviates: percentage of inhibition of p300 at 10 nM (Table 2).
Setting [2] is: percentage of inhibition of p300 at 10 nM (Table 3).

In general, IC50 refers to the midpoint of a concentration-inhibition curve. As to `CNC(=O)N1CCc2c(c(N3CCCc4cc(-c5cnn(CC(=O)NCCCCC(=O)N[C@H](C(=O)N6C[C@H](O)C[C@H]6C(=O)NCc6ccc(-c7scnc7C)cc6)C(C)(C)C)c5)c(C(F)F)cc43)nn2C2CCOCC2)C1` [P-046, 3-(7-(Difluoromethyl)-6-(1-(2-((5-(((S)-1-((2S,4R)-4-hydroxy-2-((4-(4-methylthiazol-5-yl)benzyl)carbamoyl)pyrrolidin-1-yl)-3,3-dimethyl-1-oxobutan-2-yl)amino)-5-oxopentyl)amino)-2-oxoethyl)-1H-pyrazol-4-yl)-3,4-dihydroquinolin-1(2H)-yl)-N-methyl-1-(tetrahydro-2H-pyran-4-yl)-1,4,6,7-tetrahydro-5H-pyrazolo[4,3-c]pyridine-5-carboxamide], 9.04 µM corresponded to half-maximal inhibition in the assay on LNCaP cells (CellTiter-Glo (Table 2)) (IC50). Besides, the inhibition at 0.01 µM on P300 (setting [1]) is below 20%.
For `CNC(=O)N1CCc2c(c(N3CCCc4cc(-c5cnn(CC(=O)NCCOCCOCCOCCOCCC(=O)N[C@H](C(=O)N6C[C@H](O)C[C@H]6C(=O)NCc6ccc(-c7scnc7C)cc6)C(C)(C)C)c5)c(C(F)F)cc43)nn2C2CCOCC2)C1` [P-078, 3-(7-(Difluoromethyl)-6-(1-((S)-20-((2S,4R)-4-hydroxy-2-((4-(4-methylthiazol-5-yl)benzyl)carbamoyl)pyrrolidine-1-carbonyl)-21,21-dimethyl-2,18-dioxo-6,9,12,15-tetraoxa-3,19-diazadocosyl)-1H-pyrazol-4-yl)-3,4-dihydroquinolin-1(2H)-yl)-N-methyl-1-(tetrahydro-2H-pyran-4-yl)-1,4,6,7-tetrahydro-5H-pyrazolo[4,3-c]pyridine-5-carboxamide], the IC50 in the assay on LNCaP cells (CellTiter-Glo (Table 3)) was above 10 µM. Moreover, the inhibition at 0.01 µM on P300 (setting [2]) was below 20%.
Regarding `CNC(=O)N1CCc2c(c(N3CCCc4cc(-c5cnn(C)c5)c(C(F)F)cc43)nn2C2CCN(C(=O)CN3CCC(CCc4cccc5c4C(=O)N(C4CCC(=O)NC4=O)C5=O)CC3)CC2)C1` (stereo not shown) [P-104, 3-(7-(difluoromethyl)-6-(1-methyl-1H-pyrazol-4-yl)-3,4-dihydroquinolin-1(2H)-yl)-1-(1-(2-(4-(2-(2-(2,6-dioxopiperidin-3-yl)-1,3-dioxoisoindolin-4-yl)ethyl)piperidin-1-yl)acetyl)piperidin-4-yl)-N-methyl-1,4,6,7-tetrahydro-5H-pyrazolo[4,3-c]pyridine-5-carboxamide], in the assay with LNCaP cells (CellTiter-Glo (Table 3)), the IC50 came to 0.0121 µM. For the same compound, at P300 (setting [2]), the inhibition at 0.01 µM was above 80%.
The matching figures for `CNC(=O)N1CCc2c(c(N3CCCc4cc(-c5cnn(C)c5)c(C(F)F)cc43)nn2C2CCN(C(=O)COCCOCCOCC(=O)N[C@H](C(=O)N3C[C@H](O)C[C@H]3C(=O)NCc3ccc(-c4scnc4C)cc3)C(C)(C)C)CC2)C1` [P-068, 3-(7-(Difluoromethyl)-6-(1-methyl-1H-pyrazol-4-yl)-3,4-dihydroquinolin-1(2H)-yl)-1-(1-((S)-13-((2S,4R)-4-hydroxy-2-((4-(4-methylthiazol-5-yl)benzyl)carbamoyl)pyrrolidine-1-carbonyl)-14,14-dimethyl-11-oxo-3,6,9-trioxa-12-azapentadecanoyl)piperidin-4-yl)-N-methyl-1,4,6,7-tetrahydro-5H-pyrazolo[4,3-c]pyridine-5-carboxamide]: 0.0308 µM and below 20%.
`CNC(=O)N1CCc2c(c(N3CCCc4cc(-c5cnn(C)c5)c(C(F)F)cc43)nn2C2CCN(C(=O)CCCCCNc3cccc4c3CN(C3CCC(=O)NC3=O)C4=O)CC2)C1` (stereo not shown) [P-095, 3-(7-(Difluoromethyl)-6-(1-methyl-1H-pyrazol-4-yl)-3,4-dihydroquinolin-1(2H)-yl)-1-(1-(6-((2-(2,6-dioxopiperidin-3-yl)-1-oxoisoindolin-4-yl)amino)hexanoyl)piperidin-4-yl)-N-methyl-1,4,6,7-tetrahydro-5H-pyrazolo[4,3-c]pyridine-5-carboxamide] had an IC50 with LNCaP cells (CellTiter-Glo (Table 3)) of 0.0677 µM. Besides, at P300 (setting [2]), the inhibition at 0.01 µM was 20 to 50%.
Compound `CNC(=O)N1CCc2c(c(N3CCCc4cc(-c5cnn(C)c5)c(C(F)F)cc43)nn2C2CCN(C(=O)CCCNc3cccc4c3C(=O)N(C3CCC(=O)NC3=O)C4=O)CC2)C1` (stereo not shown) [P-015, 3-(7-(difluoromethyl)-6-(1-methyl-1H-pyrazol-4-yl)-3,4-dihydroquinolin-1(2H)-yl)-1-(1-(4-((2-(2,6-dioxopiperidin-3-yl)-1,3-dioxoisoindolin-4-yl)amino)butanoyl)piperidin-4-yl)-N-methyl-1,4,6,7-tetrahydro-5H-pyrazolo[4,3-c]pyridine-5-carboxamide] showed an IC50 in the assay with LNCaP cells (CellTiter-Glo (Table 2)) of 0.0073 µM. Further, the inhibition at 0.01 µM on P300 (setting [1]) was above 80%.
Compound `CNC(=O)N1CCc2c(c(N3CCCc4cc(-c5cnn(CC(=O)NCCOCCNc6cccc7c6C(=O)N(C6CCC(=O)NC6=O)C7=O)c5)c(C(F)F)cc43)nn2C2CCOCC2)C1` (stereo not shown) [P-021] had an IC50 in the assay on LNCaP cells (CellTiter-Glo (Table 2)) of 0.278 µM. Also, the inhibition at 0.01 µM on P300 (setting [1]) was below 20%.
In the case of `CNC(=O)N1CCc2c(c(N3CCCc4cc(-c5cnn(C)c5)c(C(F)F)cc43)nn2C2CCN(C(=O)CCCCCNc3cccc4c3C(=O)N(C3CCC(=O)NC3=O)C4)CC2)C1` (stereo not shown) [P-096, 3-(7-(difluoromethyl)-6-(1-methyl-1H-pyrazol-4-yl)-3,4-dihydroquinolin-1(2H)-yl)-1-(1-(6-((2-(2,6-dioxopiperidin-3-yl)-3-oxoisoindolin-4-yl)amino)hexanoyl)piperidin-4-yl)-N-methyl-1,4,6,7-tetrahydro-5H-pyrazolo[4,3-c]pyridine-5-carboxamide], the IC50 in the assay with LNCaP cells (CellTiter-Glo (Table 3)) is 0.0266 µM. For the same compound, the inhibition at 0.01 µM on P300 (setting [2]) is above 80%.
`CC(=O)N1CCc2c(c(N3CCCc4cc(-c5cnn(C)c5)c(C(F)F)cc43)nn2C2CCN(CCN3CCC(CNc4cccc5c4C(=O)N(C4CCC(=O)NC4=O)C5=O)CC3)CC2)C1` (stereo not shown) [P-143, 4-(((1-(2-(4-(5-acetyl-3-(7-(difluoromethyl)-6-(1-methyl-1H-pyrazol-4-yl)-3,4-dihydroquinolin-1(2H)-yl)-4,5,6,7-tetrahydro-1H-pyrazolo[4,3-c]pyridin-1-yl)piperidin-1-yl)ethyl)piperidin-4-yl)methyl)amino)-2-(2,6-dioxopiperidin-3-yl)isoindoline-1,3-dione] had an IC50 in the assay with LNCaP cells (CellTiter-Glo (Table 3)) of 0.0015 µM. The inhibition at 0.01 µM on P300 was above 80%.
`CC(=O)N1CCc2c(c(N3CCCc4cc(-c5cnn(C)c5)c(C(F)F)cc43)nn2C2CCN(C(=O)CCCCCCCNc3cccc4c3n(C)c(=O)n4C3CCC(=O)NC3=O)CC2)C1` (stereo not shown) [P-159, 3-(4-((8-(4-(5-acetyl-3-(7-(difluoromethyl)-6-(1-methyl-1H-pyrazol-4-yl)-3,4-dihydroquinolin-1(2H)-yl)-4,5,6,7-tetrahydro-1H-pyrazolo[4,3-c]pyridin-1-yl)piperidin-1-yl)-8-oxooctyl)amino)-3-methyl-2-oxo-2,3-dihydro-1H-benzo[d]imidazol-1-yl)piperidine-2,6-dione] gave an IC50 with LNCaP cells (CellTiter-Glo (Table 3)) of 0.0002 µM. On P300 (setting [2]), the inhibition at 0.01 µM was above 80%.
The compound `CC(=O)N1CCc2c(c(N3CCCc4cc(-c5cnn(C)c5)c(C(F)F)cc43)nn2C2CCN(C(=O)CCCCCCNc3ccc4c(c3)n(C)c(=O)n4C3CCC(=O)NC3=O)CC2)C1` (stereo not shown) [P-130, 3-(5-((7-(4-(5-acetyl-3-(7-(difluoromethyl)-6-(1-methyl-1H-pyrazol-4-yl)-3,4-dihydroquinolin-1(2H)-yl)-4,5,6,7-tetrahydro-1H-pyrazolo[4,3-c]pyridin-1-yl)piperidin-1-yl)-7-oxoheptyl)amino)-3-methyl-2-oxo-2,3-dihydro-1H-benzo[d]imidazol-1-yl)piperidine-2,6-dione] gave a half-maximal inhibitory concentration (IC50) in the assay on LNCaP cells (CellTiter-Glo (Table 3)) of 0.0005 µM. Also, the inhibition at 0.01 µM at P300 (setting [2]) was above 80%.
`CNC(=O)N1CCc2c(c(N3CCCc4cc(-c5cnn(C)c5)c(C(F)F)cc43)nn2C2CCN(C(=O)CCCCCCCCC(=O)N[C@H](C(=O)N3C[C@H](O)C[C@H]3C(=O)NCc3ccc(-c4scnc4C)cc3)C(C)(C)C)CC2)C1` [P-062, 3-(7-(Difluoromethyl)-6-(1-methyl-1H-pyrazol-4-yl)-3,4-dihydroquinolin-1(2H)-yl)-1-(1-(10-(((S)-1-((2S,4R)-4-hydroxy-2-((4-(4-methylthiazol-5-yl)benzyl)carbamoyl)pyrrolidin-1-yl)-3,3-dimethyl-1-oxobutan-2-yl)amino)-10-oxodecanoyl)piperidin-4-yl)-N-methyl-1,4,6,7-tetrahydro-5H-pyrazolo[4,3-c]pyridine-5-carboxamide] registered an IC50 in the assay on LNCaP cells (CellTiter-Glo (Table 3)) of 0.035 µM. In addition, the inhibition at 0.01 µM on P300 (setting [2]) lay within 20 to 50%.
In the same order, the values of `CC(=O)N1CCc2c(c(N3CCCc4cc(-c5cnn(C)c5)c(C(F)F)cc43)nn2C2CCN(C(=O)CCC3CN(Cc4cccc5c4C(=O)N(C4CCC(=O)NC4=O)C5=O)C3)CC2)C1` (stereo not shown) [P-156, 4-((3-(3-(4-(5-Acetyl-3-(7-(difluoromethyl)-6-(1-methyl-1H-pyrazol-4-yl)-3,4-dihydroquinolin-1(2H)-yl)-4,5,6,7-tetrahydro-1H-pyrazolo[4,3-c]pyridin-1-yl)piperidin-1-yl)-3-oxopropyl)azetidin-1-yl)methyl)-2-(2,6-dioxopiperidin-3-yl)isoindoline-1,3-dione] are above 0.5 µM and below 20%.
In the same order, the values of `CNC(=O)N1CCc2c(c(N3CCCc4cc(-c5cnn(C)c5)c(C(F)F)cc43)nn2C2CCN(C(=O)CN3CCC(CNc4cccc5c4C(=O)N(C4CCC(=O)NC4=O)C5=O)CC3)CC2)C1` (stereo not shown) [P-102] are 0.0149 µM and 50 to 80%.

The values above are taken from US20230073777A1, “CYCLIC-AMP RESPONSE ELEMENT BINDING PROTEIN (CBP) AND/OR ADENOVIRAL E1A BINDING PROTEIN OF 300 KDA (P300) DEGRADATION COMPOUNDS AND METHODS OF USE” (CULLGEN (SHANGHAI), INC., priority 2019, published 2023).
